Reference: patent US8487103B2 (Roche Palo Alto LLC, priority 2009, dated 2013)

Target: T1, HCV polymerase (NS5B570n-Con1) (Hepatitis C virus genotype 1b, UniProt Q9WMX2)
T1 construct: contains a 21 amino acid deletion at the C-terminus relative to the full-length HCV polymerase; 6-histidine (N); made in house; host or cells: E. coli BL21(DE) pLysS, plasmid pET 17b
Test: HCV NS5B RNA Polymerase Activity
Assay type: biochemical, HCV Con1 strain
Protocol: The enzymatic activity of HCV polymerase (NS5B570n-Con1) was measured as the incorporation of radiolabeled nucleotide monophosphates into acid insoluble RNA products. Unincorporated radiolabeled substrate was removed by filtration and scintillant was added to the washed and dried filter plate containing radiolabeled RNA product. The amount of RNA product generated by NS5B570-Con1 at the end of the reaction was directly proportional to the amount of light emitted by the scintillant.
The N-terminal 6-histidine tagged HCV polymerase, derived from HCV Con1 strain, genotype 1b (NS5B570n-Con1) contains a 21 amino acid deletion at the C-terminus relative to the full-length HCV polymerase and was purified from E. coli strain BL21(DE) pLysS. The construct, containing the coding sequence of HCV NS5B Con1 (GenBank accession number AJ242654) was inserted into the plasmid construct pET 17b, downstream of a T7 promoter expression cassette and transformed into E. coli. A single colony was grown overnight as a starter culture and later used inoculate 10 L of LB media supplemented with 100 μg/mL ampicillin at 37° C. Protein expression was induced by the addition of 0.25 mM isopropyl-β-D-thiogalactopyranoside (IPTG) when optical density at […] of the culture was between 0.6 and 0.8 and cells were harvested after 16 to 18 h at 30° C. NS5B570n-Con1 was purified to homogeneity using a three-step protocol including subsequent column chromatography on Ni-NTA, SP-Sepharose HP and Superdex 75 resins.
Each 50 μL enzymatic reaction contained 20 nM RNA template derived from the complementary sequence of the Internal Ribosome Entry Site (cIRES), 20 nM NS5B570n-Con1 enzyme, 0.5 μCi of tritiated UTP (Perkin Elmer catalog no. TRK-412; specific activity: 30 to 60 Ci/mmol; stock solution concentration from 7.5×10^−5 M to 20.6×10^−6 M), 1 μM each ATP, CTP, and GTP, 40 mM Tris-HCl pH 8.0, 40 mM NaCl, 4 mM DTT (dithiothreitol), 4 mM MgCl2, and 5 μl of compound serial diluted in DMSO. Reaction mixtures were assembled in 96-well filter plates (cat #MADVN0B, Millipore Co.) and incubated for 2 h at 30° C. Reactions were stopped by addition of 10% final (v/v) trichloroacetic acid and incubated for 40 min at 4° C. Reactions were filtered, washed with 8 reaction volumes of 10% (v/v) trichloroacetic acetic acid, 4 reaction volumes of 70% (v/v) ethanol, air dried, and 25 μl of scintillant (Microscint 20, Perkin-Elmer) was added to each reaction well.
The amount of light emitted from the scintillant was converted to counts per minute (CPM) on a Topcount® plate reader (Perkin-Elmer, Energy Range: Low, Efficiency Mode Normal, Count Time: 1 min, Background Subtract: none, Cross talk reduction: Off).
Data was analyzed in Excel® (Microsoft) and ActivityBase® (Idbs®). The reaction in the absence of enzyme was used to determine the background signal, which was subtracted from the enzymatic reactions. Positive control reactions were performed in the absence of compound, from which the background corrected activity was set as 100% polymerase activity. All data was expressed as a percentage of the positive control. The compound concentration at which the enzyme-catalyzed rate of RNA synthesis was reduced by 50% (IC50) was calculated by fitting equation (i) to the data where“Y”
[formula] corresponds to the relative enzyme activity (in %), “% Min” is the residual relative activity at saturating compound concentration, “% Max” is the relative maximum enzymatic activity, “X” corresponds to the compound concentration, and “S” is the Hill coefficient (or slope).

| Compound | IC50 [nM] |
| --- | --- |
| CC(C)(C)c1cc(-c2ccc[nH]c2=O)c2ncc(-c3ccc(NS(C)(=O)=O)cc3F)nc2c1 [Compound I-8] | 4 |
| COc1ccc(-c2cc(C(C)(C)C)cc3nc(-c4ccc(NS(C)(=O)=O)cc4Cl)cnc23)c(=O)[nH]1 [Compound I-9] | 1 |
| Cc1nc2c(-c3ccc[nH]c3=O)cc(C(C)(C)C)cc2nc1-c1ccc(NS(C)(=O)=O)cc1 [Compound I-10, N-{4-[7-tert-Butyl-3-methyl-5-(2-oxo-1,2-dihydro-pyridin-3-yl)-quinoxalin-2-yl]-phenyl}-methanesulfonamide] | 21 |
| COc1ccc(-c2cc(C(C)(C)C)cc3nc(-c4ccc(NS(C)(=O)=O)cc4F)cnc23)c(=O)[nH]1 [Compound I-11] | 1 |
| COc1c(C(C)(C)C)cc(-c2ccc[nH]c2=O)c2ncc(-c3ccc(NS(C)(=O)=O)cc3)cc12 [Compound I-14, N-{4-[6-tert-Butyl-5-methoxy-8-(2-oxo-1,2-dihydro-pyridin-3-yl)-quinolin-3-yl]-phenyl}-methanesulfonamide] | 1 |
| COc1c(C(C)(C)C)cc(-c2cc(Cl)c[nH]c2=O)c2ncc(-c3ccc(NS(C)(=O)=O)cc3)cc12 [Compound I-15, N-{4-[6-tert-Butyl-8-(5-chloro-2-oxo-1,2-dihydro-pyridin-3-yl)-5-methoxy-quinolin-3-yl]-phenyl}-methanesulfonamide] | 1 |
| COc1c(C(C)(C)C)cc(-c2ccc[nH]c2=O)c2ncc(Br)cc12 [Compound I-16] | 59 |
| COc1c(C(C)(C)C)cc(-c2ccc[nH]c2=O)c2ncccc12 [Compound I-17] | 38 |
| COc1c(C(C)(C)C)cc(Br)c2ncc(-c3ccc(NS(C)(=O)=O)cc3)cc12 [Compound I-20] | 225 |
| COc1c(C(C)(C)C)cc(-c2ccc[nH]c2=O)c2ncc(N3CC(CNS(C)(=O)=O)C3)c(Cl)c12 [Compound I-22, N-{1-[6-tert-Butyl-4-chloro-5-methoxy-8-(2-oxo-1,2-dihydro-pyridin-3-yl)-quinolin-3-yl]-azetidin-3-ylmethyl}-methanesulfonamide] | 44 |
| COc1c(C(C)(C)C)cc(-c2cc(F)c[nH]c2=O)c2ncc(-c3ccc(NS(C)(=O)=O)cc3)cc12 [Compound I-23] | 1 |
| COc1c(C(C)(C)C)cc(-c2ccc(C)[nH]c2=O)c2ncc(-c3ccc(NS(C)(=O)=O)cc3)cc12 [Compound I-24] | 1 |
| COc1c(C(C)(C)C)cc(-c2c[nH]c(=O)[nH]c2=O)c2ncc(-c3ccc(NS(C)(=O)=O)cc3)cc12 [Compound I-25, N-{4-[6-tert-Butyl-8-(2,4-dioxo-1,2,3,4-tetrahydro-pyrimidin-5-yl)-5-methoxy-quinolin-3-yl]-phenyl}-methanesulfonamide] | 0.4 |
| COc1c(C(C)(C)C)cc(-c2ccncc2F)c2ncc(-c3ccc(NS(C)(=O)=O)cc3)cc12 [Compound I-26] | 1 |
| COc1c(C(C)(C)C)cc(N2CCCNC2=O)c2ncc(-c3ccc(NS(C)(=O)=O)cc3)cc12 [Compound I-27, N-{4-[6-tert-Butyl-5-methoxy-8-(2-oxo-tetrahydro-pyrimidin-1-yl)-quinolin-3-yl]-phenyl}-methanesulfonamide] | 0.7 |
| COc1c(C(C)(C)C)cc(N2CCC(=O)NC2=O)c2ncc(-c3ccc(NS(C)(=O)=O)cc3)cc12 [Compound I-28, N-{4-[6-tert-Butyl-8-(2,4-dioxo-tetrahydro-pyrimidin-1-yl)-5-methoxy-quinolin-3-yl]-phenyl}-methanesulfonamide] | 2 |
| COc1c(C(F)(F)F)cc(N2CCC(=O)NC2=O)c2ncc(-c3ccc(NS(C)(=O)=O)cc3)cc12 [Compound I-29, N-{4-[8-(2,4-Dioxo-tetrahydro-pyrimidin-1-yl)-5-methoxy-6-trifluoromethyl-quinolin-3-yl]-phenyl}-methanesulfonamide] | 1.8 |
| COc1c(CC(F)(F)F)cc(N2CCC(=O)NC2=O)c2ncc(-c3ccc(NS(C)(=O)=O)cc3)cc12 [Compound I-30, N-{4-[8-(Dioxo-tetrahydro-pyrimidin-1-yl)-5-methoxy-6-(2,2,2-trifluoro-ethyl)-quinolin-3-yl]-phenyl}-methanesulfonamide] | 17 |
| COc1c(C(C)(C)C)cc(N2CCC(=O)NC2=O)c2ncc(N3CC[C@H](CNS(C)(=O)=O)C3)cc12 [Compound I-31] | 1.8 |
| Br.[2H]C([2H])([2H])C(c1cc(-c2ccc(OC)[nH]c2=O)c2ncc(-c3ccc(NS(C)(=O)=O)cc3)cc2c1OC)(C([2H])([2H])[2H])C([2H])([2H])[2H] [Compound I-32, N-{4-[6-[1,1-di(methyl-d3)ethyl-2,2,2-d3]-5-methoxy-8-(6-methoxy-2-oxo-1,2-dihydro-pyridin-3-yl)-quinolin-3-yl]-phenyl}-methanesulfonamide] | 0.8 |
| COc1ccc(-c2cc(C3(C#N)CC3)c(OC)c3cc(-c4ccc(NS(C)(=O)=O)cc4)cnc23)c(=O)[nH]1 [Compound I-33] | 3.8 |
| COc1ccc(-c2cc(C(C)(C)C)c(OC)c3cc(-c4ccc(NS(C)(=O)=O)cc4)cnc23)c(=O)[nH]1 [Compound I-34, N-{4-[6-tert-Butyl-5-methoxy-8-(6-methoxy-2-oxo-1,2-dihydro-pyridin-3-yl)-quinolin-3-yl]-phenyl}-methanesulfonamide] | 10 |
| COc1ccc(-c2cc(C(C)(C)C)c(OC)c3cc(N4CC[C@H](CNS(C)(=O)=O)C4)ccc23)c(=O)[nH]1 [Compound I-36, N-{(S)-1-[7-tert-Butyl-8-methoxy-5-(6-methoxy-2-oxo-1,2-dihydro-pyridin-3-yl)-naphthalen-2-yl]-pyrrolidin-3-ylmethyl}-methanesulfonamide] | 8.4 |
| COc1c(C2(C(F)F)CC2)cc(-c2ccc(C)[nH]c2=O)c2ncc(-c3ccc(NS(C)(=O)=O)cc3)cc12 [Compound I-37, N-{4-[6-(1-Difluoromethyl-cyclopropyl)-5-methoxy-8-(6-methyl-2-oxo-1,2-dihydro-pyridin-3-yl)-quinolin-3-yl]-phenyl}-methanesulfonamide] | 9.9 |
| COc1ccc(-c2cc(C3(C(F)F)CC3)c(OC)c3cc(-c4ccc(NS(C)(=O)=O)cc4)cnc23)c(=O)[nH]1 [Compound I-38] | 0.6 |
| COc1c(C2(C(F)F)CC2)cc(-n2ccc(=O)[nH]c2=O)c2ncc(-c3ccc(NS(C)(=O)=O)cc3)cc12 [Compound I-39, N-{4-[6-(1-Difluoromethyl-cyclopropyl)-8-(2,4-dioxo-3,4-dihydro-2H-pyrimidin-1-yl)-5-methoxy-quinolin-3-yl]-phenyl}-methanesulfonamide] | 3.4 |
| COc1c(C(C)(C)C)cc(-c2cc(Cl)c(C)[nH]c2=O)c2ncc(-c3ccc(NS(C)(=O)=O)cc3)cc12 [Compound I-42, N-{4-[6-tert-Butyl-8-(5-chloro-6-methyl-2-oxo-1,2-dihydro-pyridin-3-yl)-5-methoxy-quinolin-3-yl]-phenyl}-methanesulfonamide] | 0.6 |
| COc1c(C(C)(C)C)cc(-c2ccc[nH]c2=O)c2ncc(-c3ccc(N)nc3)cc12 [Compound I-43, 3-[3-(6-Amino-pyridin-3-yl)-6-tert-butyl-5-methoxy-quinolin-8-yl]-1H-pyridin-2-one] | 2.6 |
| COc1c(C(C)(C)C)cc(-c2ccc(C)[nH]c2=O)c2ncc(CCCCNS(C)(=O)=O)cc12 [Compound I-44, N-{4-[6-tert-Butyl-5-methoxy-8-(6-methyl-2-oxo-1,2-dihydro-pyridin-3-yl)-quinolin-3-yl]-butyl}-methanesulfonamide] | 12.2 |
